Laboratory results as given in patent publication US20150086986A1, “METHOD TO PREDICT THE PRESENCE OF INFLAMMATION OR ITACONIC ACID, IRG1 AND/OR PROTEIN IRG1 IN A SUBJECT AND PHARMACEUTICAL COMPOSITION FOR TREATING OR PREVENTING INFLAMMATION” (priority 2011, published 2015).

Experiments:
[1] = Cis-aconitate decarboxylase (CAD) activity assay of purified Flag-IRG1; assay type: biochemical, Mus musculus; conditions: peak activity fraction; 1 mM cis-aconitate, 30° C., 40 min, pH 7.1
Method: HEK293T cells were extracted 48 hours after transfection by scraping them into a lysis buffer containing 25 mM Hepes, pH 7.1 and 1× protease inhibitor cocktail (Roche). After two freeze/thaw cycles, cell extracts were incubated for 30 min on ice in the presence of DNAse I (200 U/ml extract; Roche Applied Science) and 10 mM MgSO4. The crude cell extracts were centrifuged for 5 min at 16000×g (4° C.) and pellets were resuspended in lysis buffer for SDS-PAGE analysis. Flag-IRG1 was purified from the supernatant using the Flag®M purification kit, according to the manufacturer's instructions (Sigma Aldrich). […] Protein concentration was measured by the Bradford assay using Bradford reagent (Bio-Rad).
Cis-aconitate decarboxylase activity was measured by incubating cell extracts or purified protein fractions (10 μl) at 30° C. and for 40 min in a reaction mixture containing 25 mM Hepes, pH 7.1 and 1 mM cis-aconitate in a total volume of 100 μl. […] The dry residue was derivatized and itaconic acid was quantified by GC-MS as described below. Itaconic acid concentrations were calculated by comparing the corresponding GC/MS signals obtained in samples with the one obtained after injection of known amounts of itaconic acid standards. […]
Cis-aconitate decarboxylase activity was measured in cell extracts and purification fractions. […]

[2] = tested on: Salmonella enterica serovar Typhimurium; assay: S. enterica growth in liquid minimal medium with acetate as unique carbon source; assay type: cell-based
Method: To directly investigate the effect of itaconic acid on bacterial replication, S. enterica was grown in liquid minimal medium supplemented with acetate as the unique carbon source and various concentrations of itaconic acid. […] S. enterica was grown in liquid medium with acetate as unique carbon source in the presence of increasing concentrations of itaconic acid (5, 10, 50, 100 mM). The optical density (OD) was measured every hour to record the bacterial growth. Curves are calculated in % relative to time 0 and represent the mean of three independent experiments.

[3] = tested on: bacterial isocytrate lyase (ICL); conditions: literature reports; cited from earlier work
Streptococcus pyogenes = assay: Bacterial phagocytosis and killing assay in siRNA-transfected RAW264.7 macrophages infected with S. pyogenes; assay type: cell-based; conditions: streptococci compared with Salmonella
Method: Bacterial phagocytosis and killing assay were conducted to test the influence of the uptake of S. pyogenes by transfected (siRNA IRG1) mouse macrophages (RAW264.7 cell line) after 1 h, 2 h and 4 h of incubation.
Transfected RAW264.7 macrophages (with unspecific siRNA or IRG1 specific siRNA) were infected with Streptococcus pyogenes strain A20 at a multiplicity of infection (MOI) of 10:1 (10 bacteria per macrophage) and incubated for 1 h at 37° C., 5% CO2. Macrophages were then washed with sterile PBS, resuspended in complete medium containing […] gentamicin to kill non ingested bacteria and further incubated for 2 h at 37° C., 5% CO2. Macrophages were then disrupted with dH2O to release intracellular bacteria (this was considered time 0 h relative to gentamicin treatment) or 1, 2, 4 h later (this was considered time 1, 2, 4 h relative to gentamicin treatment) and the amount of viable intracellular bacteria was determined by plating on blood agar.
RAW264.7 cells were transfected with either siRNA specific for IRG1 or with siRNA Ctr. […] Macrophages were then disrupted with H2O to release intracellular bacteria and the amount of viable intracellular bacteria was determined by plating on blood agar. […]

| Compound | CAD specific activity [1] | itaconic acid concentration with significant effect on growth inhibition ([2]; 5, 10, 50, 100 mM tested, OD every hour) | bacterial growth inhibition ([2]; increasing concentrations of itaconic acid) | inhibition of isocitrate lyase [3] | antimicrobial effect of itaconic acid (Streptococcus pyogenes) |
| --- | --- | --- | --- | --- | --- |
| Flag-IRG1: FLAG-tagged IRG1 protein purified from HEK293T cells transfected with a pCMV6-Entry-IRG1 expression plasmid | about 40 nmol min^−1 mg protein^−1 |  |  |  |  |
| C=C(CC(=O)O)C(=O)O [itaconic acid] |  | higher than 10 mM | dose-dependent growth inhibition | inhibits | less pronounced in streptococci than in Salmonella |
